Experiments:
[1] = Pharmacokinetics of carfilzomib in plasma; format: in vivo, human; settings: compared with carfilzomib monotherapy study
Japanese RRMM patients = settings: carfilzomib monotherapy; cited from earlier work

**Q.** With `CC(C)C[C@H](NC(=O)[C@H](CCc1ccccc1)NC(=O)CN1CCOCC1)C(=O)N[C@@H](Cc1ccccc1)C(=O)N[C@@H](CC(C)C)C(=O)[C@@]1(C)CO1` [carfilzomib] as the molecule, how does the “Effect of lenalidomide and dexamethasone on carfilzomib pharmacokinetics” value [1] read?
**A.** The value was “did not appear to be affected”.

**Q.** And the ORR (Japanese RRMM patients)?
**A.** Its ORR is 22.5%.

From PMC5378280 (Cancer Science, 2017)
